Series [1] has as its system MCF-7 breast adenocarcinoma cells. The series can be described thus: MTT cytotoxicity assay, MCF-7. The format is cell-based, human. The conditions noted are these: for fold increase in activity relative to parent analogue: MCF-7, 4d vs 4c, 5b, 5c, 5d vs 5a; for IC50 MCF-7 / IC50: MTT, 48 h, means ± SD of three independent experiments; for IC50: Homo sapiens, MCF7. The protocol: (§1) The in vitro cytotoxicity of the synthesized 1,3,4-thiadiazole derivatives against breast adenocarcinoma cells (MCF-7) and human hepatocellular carcinoma (HepG2) cell lines were evaluated by the MTT assay, using 5-Fluorouracil (5-FU) as a positive control.
(§2) Human hepatocellular carcinoma (HepG2) cells and breast adenocarcinoma (MCF7) cells were purchased from the American Type Culture Collection (ATCC, USA). Under 37 °C with 5% CO2 in a humid incubator, cells were propagated using RPMI supplemented with 10% fetal bovine serum (FBS) and 1% v/v penicillin-streptomycin.
(§3) According to Tim Mosmann’s approach, an MTT assay was performed to assess the antiproliferative properties of the compounds. In short, HepG2 or MCF7 cells (0.5 × 105) were grown in flat-bottom 96-well microplates in 180 μL/well RPMI media supplemented with 10% fetal bovine serum, 2μmol/mL L-glutamine, 250 ng/mL fungizone, and 100 units/mL penicillin-streptomycin solutions at 37 °C in a CO2 incubator. Following incubation, 180 μL/well of the new serum-free medium was added to each well after the old media had been withdrawn. After that, cells were exposed to 20 μL of various concentrations of the compounds (50–0.75 μg/mL) and were incubated for 48 h at 37 °C in a humidified 5% CO2 environment. The MTT solution (20 µL/well) was added and incubated for a further 4 h. The plate was agitated at room temperature while acidified isopropanol (160 μL/well) was added to dissolve the formazan crystals. The absorbance at 570 nm was then determined photometrically using the microplate ELISA reader (FLUOstar Omega, BMG, Labtech, Germany). Graph-Pad PRISM version 6 was used to determine the IC50 for each compound.
(Formazan colour is commonly taken as a measure of viable cells.)

The test system of series [2] is HepG2 human hepatocellular carcinoma cells. The series can be described thus: MTT cytotoxicity assay, HepG2. The class given is cell-based. Conditions: MTT, 48 h, means ± SD of three independent experiments; for IC50: Homo sapiens, HepG2. The procedure: as §1, §2, §3
The test system of series [3] is breast cancer MCF-7 cells. Details: method as in PMID 22261027. Conditions: cited from earlier work.

Converted amounts (≈) assume the structure as drawn.

In the case of “4-((4-((5-(4-Chlorophenyl)-1,3,4-Thiadiazol-2-yl)Imino)-4,5-Dihydrothiazol-2-yl)Amino)Phenol [Compound 5d]”, in series [1], the “fold increase in activity relative to parent analogue” value is 2- to 4 fold and the “IC50 MCF-7” value worked out at 6.12 ± 0.51 µg/mL. In addition, in series [2], the “IC50 HepG2” value came to 14.12 ± 0.01 µg/mL.
For “4-((5-(4-Chlorophenyl)-1,3,4-Thiadiazol-2-yl)Imino)-N-(4-Ethylphenyl)-4,5-Dihydrothiazol-2-Amine [Compound 5c]”, in series [1], the “fold increase in activity relative to parent analogue” value is recorded as 2- to 4 fold and the “IC50 MCF-7” value worked out at 5.72 ± 0.17 µg/mL. The “IC50 HepG2” value in series [2] is given as 11.25 ± 0.44 µg/mL.
“4-((5-(4-Chlorophenyl)-1,3,4-Thiadiazol-2-yl)Imino)-N-(4-Tolyl)-4,5-Dihydrothiazol-2-Amine [Compound 5b]”: in series [1], the “fold increase in activity relative to parent analogue” value is listed as 2- to 4 fold and the “IC50 MCF-7” value stood at 12.64 ± 0.47 µg/mL. Also, the “IC50 HepG2” value in series [2] was determined as 8.81 ± 0.64 µg/mL.
Consider “4-((5-(4-Chlorophenyl)-1,3,4-Thiadiazol-2-yl)Imino)-N-Phenyl-4,5-Dihydrothiazol-2-Amine [Compound 5a]”, for which the “IC50 MCF-7” value in series [1] is reported as 24.79 ± 2.30 µg/mL. In addition, the “IC50 HepG2” value in series [2] was found to be 26.12 ± 2.02 µg/mL.
The term IC50 denotes the concentration needed to halve the response being measured. High values mean weaker potency in that assay, low ones greater potency in that assay. Turning to `O=C(C[n+]1ccccc1)Nc1nnc(-c2ccc(Cl)cc2)s1.[Cl-]` [Compound 3, 1-(2-((5-(4-Chlorophenyl)-1,3,4-Thiadiazol-2-yl)Amino)-2-Oxoethyl)Pyridinium Chloride], the IC50 in series [1] amounted to 7.56 ± 1.2 µg/mL; in series [2], 13 ± 0.11 µg/mL.
For orientation: melting point means the temperature, or range, at which the solid turns liquid. `CN1CCN(CC(=O)Nc2nnc(-c3ccc(Cl)cc3)s2)CC1` [Compound 4a, N-(5-(4-Chlorophenyl)-1,3,4-Thiadiazol-2-yl)-2-(4-Methylpiperazin-1-yl)Acetamide] gave a melting point of 168 to 170 °C. In addition, the half-maximal inhibitory concentration (IC50) in series [1] stood at 51.56 ± 0.48 µg/mL (≈ 147 µM). Further, the IC50 in series [2] turned out to be 26.3 ± 5.76 µg/mL (≈ 74.7 µM).
As for `CCN1CCN(CC(=O)Nc2nnc(-c3ccc(Cl)cc3)s2)CC1` [Compound 4b, N-(5-(4-Chlorophenyl)-1,3,4-Thiadiazol-2-yl)-2-(4-Ethylpiperazin-1-yl)Acetamide], the IC50 in series [1] was found to be 25.2 ± 1.3 µg/mL (≈ 68.9 µM); in series [2], 3.55 ± 0.05 µg/mL (≈ 9.7 µM).
As for `O=C(CN1CCN(c2ccccc2)CC1)Nc1nnc(-c2ccc(Cl)cc2)s1` [Compound 4c, N-(5-(4-Chlorophenyl)-1,3,4-Thiadiazol-2-yl)-2-(4-Phenylpiperazin-1-yl)Acetamide], the IC50 amounted to 49.4 ± 3.5 µg/mL (≈ 119 µM) in series [1] and 27.9 ± 0.93 µg/mL (≈ 67.5 µM) in series [2].
As for `Cc1ccc(N2CCN(CC(=O)Nc3nnc(-c4ccc(Cl)cc4)s3)CC2)cc1` [Compound 4d, N-(5-(4-Chlorophenyl)-1,3,4-Thiadiazol-2-yl)-2-(4-(4-Tolyl)Piperazin-1-yl)Acetamide], the melting point is 222 to 224 °C. In series [1], the concentration for half-maximal inhibition (IC50) was 21.8 ± 0.43 µg/mL (≈ 50.8 µM) and the “fold increase in activity relative to parent analogue” value is over 2 fold. In series [2], it took 44.9 ± 1.54 µg/mL (≈ 105 µM) to reach half-maximal inhibition (IC50).
Take `CCOc1ccc(N2CCN(CC(=O)Nc3nnc(-c4ccc(Cl)cc4)s3)CC2)cc1` [Compound 4f, N-(5-(4-Chlorophenyl)-1,3,4-Thiadiazol-2-yl)-2-(4-(4-Ethoxyphenyl)Piperazin-1-yl)Acetamide]: the melting point was 225 to 227 °C. For the same compound, the concentration for half-maximal inhibition (IC50) in series [1] is 18.4 ± 0.85 µg/mL (≈ 40.2 µM). The compound also returned a half-inhibitory concentration (IC50) in series [2] of 38.1 ± 0.14 µg/mL (≈ 83.2 µM).
Regarding `O=C(CN1CCN(c2ccc(F)cc2)CC1)Nc1nnc(-c2ccc(Cl)cc2)s1` [Compound 4g, N-(5-(4-Chlorophenyl)-1,3,4-Thiadiazol-2-yl)-2-(4-(4-Fluorophenyl)Piperazin-1-yl)Acetamide], the concentration for half-maximal inhibition (IC50) in series [1] worked out at 10.1 ± 1.2 µg/mL (≈ 23.4 µM); in series [2], 13.9 ± 0.59 µg/mL (≈ 32.1 µM).
`O=C(CN1CCN(C(=O)c2ccco2)CC1)Nc1nnc(-c2ccc(Cl)cc2)s1` [Compound 4h, N-(5-(4-Chlorophenyl)-1,3,4-Thiadiazol-2-yl)-2-(4-(Furan-2-Carbonyl)Piperazin-1-yl)Acetamide]: the results for the IC50 in series [1] and in series [2] were 3.21 ± 0.3 µg/mL (≈ 7.43 µM) and 8.35 ± 0.15 µg/mL (≈ 19.3 µM), respectively.
Taken in the same sequence, the figures for `O=c1[nH]cc(F)c(=O)[nH]1` [Compound 5-FU, 5-Fluorouracil, reference compound] were 6.8 ± 0.9 µg/mL (≈ 52.3 µM) and 8.4 ± 1.2 µg/mL (≈ 64.6 µM).
Consider `COc1ccc(/C=C/C(=O)Nc2nnc(-c3ccc(OC)cc3)s2)cc1` [II], for which, in series [3], the “IC50 MCF-7 growth inhibition” value was 0.28 µg/mL (≈ 0.762 µM) and the “cell cycle effect in MCF-7 cells” value is on record as “cell cycle arrest at the G2/M phase”.
As to “N-(4-Bromophenyl)-4-((5-(4-Chlorophenyl)-1,3,4-Thiadiazol-2-yl)Imino)-4,5-Dihydrothiazol-2-Amine [Compound 5e]”, in series [1], the “IC50 MCF-7” value was 3.77 ± 0.13 µg/mL. In series [2], the “IC50 HepG2” value was 25.77 ± 0.64 µg/mL.
